Test: pKa values for the secondary alcohol OH group

Compound	pKa	pKa value for the secondary alcohol OH group
OC[C@@H](O)[C@@H](O)[C@H](O)[C@@H](O)CO [sorbitol]	13.6	–
OC[C@H]1O[C@@H]2O[C@H]3[C@H](O)[C@@H](O)[C@@H](O[C@H]4[C@H](O)[C@@H](O)[C@@H](O[C@H]5[C@H](O)[C@@H](O)[C@@H](O[C@H]6[C@H](O)[C@@H](O)[C@@H](O[C@H]7[C@H](O)[C@@H](O)[C@@H](O[C@H]1[C@H](O)[C@H]2O)O[C@@H]7CO)O[C@@H]6CO)O[C@@H]5CO)O[C@@H]4CO)O[C@@H]3CO [α-CD]	–	12.05
OC[C@H]1O[C@H](O[C@H]2[C@H](O)[C@@H](O)C(O)O[C@@H]2CO)[C@H](O)[C@@H](O)[C@@H]1O (mixture of isomers) [maltose]	11.9	–

Source: US20150136603A1, “WATER-SOLUBLE, UV-ABSORBING AND/OR FLOURESCENT COMPONENTS WITH VERY HIGH ISOELECTRIC POINTS” (TEXAS A & M UNIVERSITY SYSTEM, priority 2004, published 2015)
